Counter-ions that a name gives are not always drawn.
Columns and labels:
Type in all cases: functional
[1] = In vitro cytotoxic activity against human squamous cell carcinoma (HSC-2) cells.
[2] = In vitro cytotoxic activity against human salivary gland tumor (HSG) cells.
[3] = In vitro cytotoxic activity against human gingival fibroblasts (HGF).

| SMILES | CC50 [1] [µM] | CC50 [2] [µM] | CC50 [3] [µM] |
| --- | --- | --- | --- |
| O=C(c1ccccc1)C(O)C(F)(F)F (centres undefined) | 36 | 240 | 1300 |
| CCCCCCC(=O)C(O)C(F)(F)F (centres undefined) | 90 | 220 | 790 |
| O=C(C(=O)C(F)(F)F)c1ccccc1 | 79 | 390 | 510 |
| O=C(Cc1ccccc1)C(O)C(F)(F)F (centres undefined) | 22 | 110 | 310 |
| CC(=O)CC(=O)C(F)(F)F | 2500 | 3200 | > 3200 |
| O=C(CC(O)C(F)(F)F)c1ccccc1 (centres undefined) | 240 | 1500 | 1700 |
| COC(=O)CC(=O)C(F)(F)F | 1300 | 1800 | > 2900 |
| OC(Cc1ccccc1)C(F)(F)F (centres undefined) | 460 | 1300 | 1700 |
| O=C(OC1c2ccccc2-c2ccccc21)N1C=C(C(=O)C(F)(F)F)CC1 | 140 | 180 | 230 |
| O=C(Cc1ccccc1)C(F)(F)F | 1400 | 1600 | 2200 |
| O=C(c1ccccc1)C(F)(F)F | > 2900 | 2700 | > 2900 |
| O=C(Cc1ccccn1)C(F)(F)F | 620 | 1600 | 2100 |
| Cc1nc(CC(=O)C(F)(F)F)oc1C | < 68 | 150 | 77 |
| O=C(c1cccs1)C(F)(F)F | 1900 | 2700 | > 2800 |
| OC(c1ccccc1)C(F)(F)F (centres undefined) | 1100 | 2100 | 2200 |
| O=C(Oc1ccccc1)N1C=C(C(=O)C(F)(F)F)CC1 | 230 | 270 | 620 |
| C=CCOC(=O)N1C=C(C(=O)C(F)(F)F)CC1 | 110 | 240 | 140 |
| CC(=O)C(O)c1ccccc1 (centres undefined) | 1700 | 2900 | 3200 |
| O=C(NCCCC(=O)C(O)C(F)(F)F)c1ccccc1 (centres undefined) | 31 | 400 | 420 |
| O=C(CC(=O)C(F)(F)F)c1ccccc1 | 150 | 420 | 1400 |
| O=C(Cc1nc2ccccc2s1)C(F)(F)F | 150 | 390 | 430 |
| O=C(c1nc2ccccc2o1)C(F)(F)F | 580 | 1700 | 2200 |
| O=C(c1ccc[nH]1)C(F)(F)F | 870 | 1800 | 2100 |
| O=C(c1c[nH]c2ccccc12)C(F)(F)F | 94 | 1300 | 2000 |
| O=C(Cc1nc2ccccc2o1)C(F)(F)F | 43 | 79 | 630 |
| O=C(Cc1nc2ccccc2[nH]1)C(F)(F)F | 53 | 340 | 200 |
| COc1cccc2c1C(=O)c1c(O)c3c(c(O)c1C2=O)C[C@@](O)(C(=O)CO)C[C@@H]3O[C@H]1C[C@H](N)[C@H](O)[C@H](C)O1 [DOXORUBICIN HYDROCHLORIDE] | 4.1 | – | – |

From ChEMBL document CHEMBL1131868, “Alpha-trifluoromethylated acyloins induce apoptosis in human oral tumor cell lines” (1999)
